# Results published in PubChem BioAssay (NCI).
#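 These data come from cells grown in 96-well plates and exposed to compound for 48 hours at five concentrations. TGI: concentration producing complete growth inhibition.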
# What was measured:
# Assay in all cases: growth of human tumour cells (NCI), 48 h
# [1] = tested on: NCI-H460 lung
# [2] = tested on: COLO 205 colon
# [3] = tested on: MOLT-4 leukemia
# [4] = tested on: DLD-1 colon
# [5] = tested on: HCC-2998 colon
# [6] = tested on: RXF-631 renal
# [7] = tested on: KM20L2 colon
# [8] = tested on: SK-MEL-2 melanoma
# [9] = tested on: RXF 393 renal
# [10] = tested on: CCRF-CEM leukemia
# [11] = tested on: OVCAR-5 ovarian
# [12] = tested on: HCT-116 colon
# [13] = tested on: A549 NSCLC
# [14] = tested on: 786-0 renal
# [15] = tested on: U251 CNS
# [16] = tested on: LOX IMVI melanoma
# [17] = tested on: HL-60(TB) leukemia
# [18] = tested on: HOP-18 NSCLC
# [19] = tested on: NCI-H23 lung
# [20] = tested on: UO-31 renal
# [21] = tested on: SNB-78 CNS
# [22] = tested on: LXFL 529 NSCLC
# [23] = tested on: MALME-3M melanoma
# [24] = tested on: OVCAR-3 ovarian
# [25] = tested on: EKVX NSCLC
# [26] = tested on: SW-620 colon
# [27] = tested on: SK-OV-3 ovarian
# [28] = tested on: OVCAR-4 ovarian
# [29] = tested on: NCI-H522 lung
# [30] = tested on: SK-MEL-5 melanoma
# [31] = tested on: OVCAR-8 ovarian
# [32] = tested on: HOP-62 NSCLC
# [33] = tested on: SNB-19 CNS
# [34] = tested on: ACHN renal
# [35] = tested on: SN12C renal
# [36] = tested on: IGROV1 ovarian
# [37] = tested on: M19-MEL melanoma
# [38] = tested on: KM12 colon
# [39] = tested on: SR leukemia
# [40] = tested on: UACC-257 melanoma
# [41] = tested on: M14 melanoma
# [42] = tested on: UACC-62 melanoma
# [43] = tested on: SF-268 CNS
# [44] = tested on: SF-539 CNS
# [45] = tested on: HT29 colon
# [46] = tested on: K-562 leukemia
# [47] = tested on: XF 498 CNS
# [48] = tested on: RPMI-8226 leukemia
# [49] = tested on: SK-MEL-28 melanoma
# [50] = tested on: SF-295 CNS
# [51] = tested on: CAKI-1 renal
# [52] = tested on: NCI-H226 lung
# [53] = tested on: HCT-15 colon
# [54] = tested on: TK-10 renal
# [55] = tested on: DMS 273 small cell lung
# [56] = tested on: HOP-92 NSCLC
# [57] = tested on: A498 renal
# [58] = tested on: SNB-75 CNS
# [59] = tested on: DMS 114 small cell lung
structure (smiles),measurement,setting,value
Cc1cc(C)c(-c2noc(-c3ccc(Cl)cc3)c2C2=NCCCN2)c(C)c1,TGI,[1],28.8 µM
same,TGI,[2],35.1 µM
same,TGI,[3],41.7 µM
same,TGI,[4],> 100 µM
same,TGI,[5],43.6 µM
same,TGI,[6],> 100 µM
same,TGI,[7],70.6 µM
same,TGI,[8],49.9 µM
same,TGI,[9],48.5 µM
same,TGI,[10],73.9 µM
same,TGI,[11],86 µM
same,TGI,[12],> 100 µM
same,TGI,[13],> 100 µM
same,TGI,[14],26.5 µM
same,TGI,[15],25.8 µM
same,TGI,[16],37.1 µM
same,TGI,[17],48.7 µM
same,TGI,[18],> 100 µM
same,TGI,[19],40.1 µM
same,TGI,[20],> 100 µM
same,TGI,[21],> 100 µM
same,TGI,[22],> 100 µM
same,TGI,[23],36.8 µM
same,TGI,[24],> 100 µM
same,TGI,[25],> 100 µM
same,TGI,[26],> 100 µM
same,TGI,[27],> 100 µM
same,TGI,[28],> 100 µM
same,TGI,[29],71.3 µM
same,TGI,[30],24.2 µM
same,TGI,[31],> 100 µM
same,TGI,[32],85.8 µM
same,TGI,[33],> 100 µM
same,TGI,[34],> 100 µM
same,TGI,[35],82.6 µM
same,TGI,[36],> 100 µM
same,TGI,[37],> 100 µM
same,TGI,[38],> 100 µM
same,TGI,[39],> 100 µM
same,TGI,[40],40.6 µM
same,TGI,[41],6.11 µM
same,TGI,[42],40.7 µM
same,TGI,[43],49.6 µM
same,TGI,[44],30.5 µM
same,TGI,[45],32.5 µM
same,TGI,[46],37.7 µM
same,TGI,[47],54.8 µM
same,TGI,[48],45.3 µM
same,TGI,[49],29.9 µM
same,TGI,[50],25.4 µM
same,TGI,[51],> 100 µM
same,TGI,[52],95.3 µM
same,TGI,[53],> 100 µM
CCN(CC)CCCC(C)Nc1c2cc(OC)cc(C)c2nc2c(C)c(Cl)ccc12 (stereo not drawn),TGI,[1],3.32 µM
same,TGI,[3],3.26 µM
same,TGI,[4],2.93 µM
same,TGI,[5],3.03 µM
same,TGI,[6],3.23 µM
same,TGI,[8],3.44 µM
same,TGI,[9],3.54 µM
same,TGI,[10],3.25 µM
same,TGI,[11],3.92 µM
same,TGI,[13],3.31 µM
same,TGI,[14],3.02 µM
same,TGI,[54],3.19 µM
same,TGI,[15],3.26 µM
same,TGI,[17],4.26 µM
same,TGI,[18],2.91 µM
same,TGI,[19],2.82 µM
same,TGI,[20],3.1 µM
same,TGI,[22],2.98 µM
same,TGI,[23],3.52 µM
same,TGI,[24],3.27 µM
same,TGI,[27],3.06 µM
same,TGI,[55],3.14 µM
same,TGI,[29],3.06 µM
same,TGI,[30],3.28 µM
same,TGI,[31],3.19 µM
same,TGI,[32],3.08 µM
same,TGI,[34],3.09 µM
same,TGI,[35],2.93 µM
same,TGI,[36],3.09 µM
same,TGI,[37],3.13 µM
same,TGI,[56],3.22 µM
same,TGI,[38],2.99 µM
same,TGI,[40],3.31 µM
same,TGI,[41],3.68 µM
same,TGI,[45],3.03 µM
same,TGI,[57],6.3 µM
same,TGI,[49],3.39 µM
same,TGI,[50],3.71 µM
same,TGI,[51],4.81 µM
same,TGI,[53],3.2 µM
O=C(Nc1ccc(Cl)c(Cl)c1)C(=O)C(C(=O)c1ccccc1-c1ccccc1)C1OC(=O)c2ccccc21 (stereo not drawn),TGI,[1],62.6 µM
same,TGI,[2],30.2 µM
same,TGI,[3],> 100 µM
same,TGI,[4],30.1 µM
same,TGI,[5],27.6 µM
same,TGI,[6],37.7 µM
same,TGI,[7],52.7 µM
same,TGI,[8],24.7 µM
same,TGI,[9],21.5 µM
same,TGI,[10],84.9 µM
same,TGI,[11],33.9 µM
same,TGI,[12],22.3 µM
same,TGI,[13],63.2 µM
same,TGI,[14],25.6 µM
same,TGI,[54],43.7 µM
same,TGI,[15],23 µM
same,TGI,[16],28.9 µM
same,TGI,[17],69.4 µM
same,TGI,[19],24.6 µM
same,TGI,[20],33.6 µM
same,TGI,[21],> 100 µM
same,TGI,[22],21 µM
same,TGI,[24],31.9 µM
same,TGI,[58],41.3 µM
same,TGI,[25],43.4 µM
same,TGI,[26],42.7 µM
same,TGI,[27],78.3 µM
same,TGI,[29],20.6 µM
same,TGI,[30],30.3 µM
same,TGI,[31],84.5 µM
same,TGI,[32],27.4 µM
same,TGI,[34],> 100 µM
same,TGI,[36],73.5 µM
same,TGI,[59],27 µM
same,TGI,[37],33.9 µM
same,TGI,[56],30.2 µM
same,TGI,[38],43.2 µM
same,TGI,[40],> 100 µM
same,TGI,[41],30.1 µM
same,TGI,[42],41.2 µM
same,TGI,[43],72.2 µM
same,TGI,[44],27.9 µM
same,TGI,[45],> 100 µM
same,TGI,[46],> 100 µM
same,TGI,[47],26.5 µM
same,TGI,[48],63.5 µM
same,TGI,[57],65.5 µM
same,TGI,[49],> 100 µM
same,TGI,[50],73.6 µM
same,TGI,[52],15.1 µM
Cc1cccc(C)c1N1C(=O)C(=O)C(c2nc3ccccc3s2)/C(=N\N)C1=O (stereo not drawn),TGI,[1],> 100 µM
same,TGI,[2],> 100 µM
same,TGI,[3],> 100 µM
same,TGI,[4],> 100 µM
same,TGI,[5],> 100 µM
same,TGI,[6],> 100 µM
same,TGI,[7],> 100 µM
same,TGI,[8],> 100 µM
same,TGI,[11],> 100 µM
same,TGI,[12],> 100 µM
same,TGI,[13],> 100 µM
same,TGI,[14],> 100 µM
same,TGI,[54],> 100 µM
same,TGI,[15],> 100 µM
same,TGI,[16],> 100 µM
same,TGI,[17],> 100 µM
same,TGI,[18],> 100 µM
same,TGI,[19],> 100 µM
same,TGI,[20],> 100 µM
same,TGI,[21],> 100 µM
same,TGI,[22],> 100 µM
same,TGI,[23],> 100 µM
same,TGI,[24],> 100 µM
same,TGI,[58],> 100 µM
same,TGI,[25],> 100 µM
same,TGI,[26],> 100 µM
same,TGI,[27],> 100 µM
same,TGI,[28],> 100 µM
same,TGI,[55],> 100 µM
same,TGI,[29],> 100 µM
same,TGI,[30],> 100 µM
same,TGI,[31],> 100 µM
same,TGI,[32],> 100 µM
same,TGI,[33],> 100 µM
same,TGI,[34],> 100 µM
same,TGI,[35],> 100 µM
same,TGI,[36],> 100 µM
same,TGI,[59],> 100 µM
same,TGI,[37],> 100 µM
same,TGI,[56],> 100 µM
same,TGI,[38],> 100 µM
same,TGI,[40],> 100 µM
same,TGI,[41],> 100 µM
same,TGI,[42],> 100 µM
same,TGI,[43],> 100 µM
same,TGI,[44],> 100 µM
same,TGI,[45],> 100 µM
same,TGI,[46],> 100 µM
same,TGI,[48],> 100 µM
same,TGI,[57],> 100 µM
same,TGI,[49],> 100 µM
same,TGI,[50],> 100 µM
same,TGI,[51],> 100 µM
same,TGI,[52],> 100 µM
same,TGI,[53],> 100 µM
